Here are results for 2 compounds from PubChem BioAssay (NCI).

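Dose response: 5 concentrations. Exposure: 48 h. Format: 96-well plates. Endpoint: linear interpolation; highest concentration if not reached. GI50 marks 50% less growth. TGI: concentration producing complete growth inhibition.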

Among the test systems are MDA-MB-231 breast; NCI-H23 lung; A498 renal; UACC-62 melanoma; A549 NSCLC; U251 CNS; OVCAR-8 ovarian; HL-60(TB) leukemia; DU-145 prostate; EKVX NSCLC.
Holding throughout (experiment): inhibition of tumour cell growth, NCI panel, 48 h

For `COc1nc(N(C)O)nc(N(C)O)n1`, the GI50 in the test on MDA-MB-231 breast was 3.54 µM; with NCI-H23 lung it was 2.14 µM; with A498 renal, 7.19 µM; in the test on UACC-62 melanoma, 2.28 µM; in the test on A549 NSCLC, 1.39 µM; in the test with U251 CNS, 0.716 µM. Besides, the GI50 in the test on OVCAR-8 ovarian was 2.48 µM; in the test with HL-60(TB) leukemia it was 1.68 µM; with DU-145 prostate, 0.858 µM; with EKVX NSCLC it was 1.56 µM. The TGI with MDA-MB-231 breast is greater than 100 µM; in the test with NCI-H23 lung it was greater than 100 µM; with A498 renal, 80.5 µM; in the test with UACC-62 melanoma, 9.92 µM; with A549 NSCLC it was greater than 100 µM; with U251 CNS, greater than 100 µM. For the same compound, the TGI in the test with OVCAR-8 ovarian is greater than 100 µM; in the test on HL-60(TB) leukemia, 9.1 µM; in the test on DU-145 prostate, greater than 100 µM; with EKVX NSCLC it was greater than 100 µM.

As for `COc1cc(C2C=C(c3cccc(NC(C)=O)c3)Nc3ncnn32)cc(OC)c1OC` (stereo not given), the GI50 in the test with MDA-MB-231 breast was 2.11 µM; in the test with NCI-H23 lung, 0.468 µM; in the test on A498 renal, 0.242 µM; in the test with UACC-62 melanoma, 0.262 µM; with A549 NSCLC it was 6.68 µM; in the test with U251 CNS, 0.395 µM. The GI50 in the test with OVCAR-8 ovarian is 0.327 µM; in the test on HL-60(TB) leukemia, 0.443 µM; in the test on DU-145 prostate, 0.44 µM; in the test on EKVX NSCLC it was 0.737 µM. The TGI is greater than 55.9 µM in the test on MDA-MB-231 breast; greater than 100 µM in the test on NCI-H23 lung; 4.67 µM in the test with A498 renal; greater than 100 µM in the test with UACC-62 melanoma; greater than 100 µM with A549 NSCLC; greater than 100 µM in the test with U251 CNS. The TGI was greater than 100 µM in the test on OVCAR-8 ovarian, 2.28 µM with HL-60(TB) leukemia, 7.34 µM with DU-145 prostate and greater than 100 µM in the test with EKVX NSCLC.
